Data published in the supplement of paper PMC9663587.

Assays:
BSJ-01-175 = compound: CN(C)C/C=C/C(=O)Nc1ccc(O[C@@H]2CCC[C@@H](Nc3ncc(Cl)c(-c4c[nH]c5ccccc45)n3)C2)cc1 [BSJ-01-175]
AZD7762 = compound: NC(=O)Nc1cc(-c2cccc(F)c2)sc1C(=O)N[C@H]1CCCNC1 [AZD7762]
[1] = compound: COc1ccc2c(c1)[C@]1(C[C@H]1c1ccc3c(/C=C/c4ccc(CN5C[C@@H](C)O[C@@H](C)C5)cc4)n[nH]c3c1)C(=O)N2
Ipatasertib/GDC0068 = compound: CC(C)NC[C@@H](C(=O)N1CCN(c2ncnc3c2[C@H](C)C[C@H]3O)CC1)c1ccc(Cl)cc1 [Ipatasertib/GDC0068]
[2] = compound: CCC1=CN=CN=C1N2CCN(CC2)CC3=NC4=C(N3)C=C(C=C4)C(F)(F)F
AZD6738 = compound: C[C@@H]1COCCN1c1cc(C2([S@](C)(=N)=O)CC2)nc(-c2cc[nH]c3nccc2-3)n1 [AZD6738]
Tivantinib/ARQ197 = compound: O=C1NC(=O)[C@@H](c2cn3c4c(cccc24)CCC3)[C@@H]1c1c[nH]c2ccccc12 [Tivantinib/ARQ197]
[3] = compound: CC(=O)Nc1cccc(-n2c(=O)n(C3CC3)c(=O)c3c(Nc4ccc(I)cc4F)n(C)c(=O)c(C)c32)c1
Vorinostat = compound: O=C(CCCCCCC(=O)Nc1ccccc1)NO [Vorinostat]
[4] = compound: CCN1CCN(Cc2ccc(Nc3ncc(F)c(-c4cc(F)c5nc(C)n(C(C)C)c5c4)n3)nc2)CC1
Flavopiridol = compound: CN1CC[C@H](c2c(O)cc(O)c3c(=O)cc(-c4ccccc4Cl)oc23)[C@H](O)C1 [Flavopiridol]; test: increase in dead-cell fraction, 72 h; higher = more death;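 also: breast cancer cell lines in 384-well plates, stained with Hoechst plus LIVE/DEAD far red dye and imaged, cells above an LDR intensity threshold counted dead, Hoechst-negative corpses included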
[5] = compound: CCc1cnn2c(NCc3ccc[n+]([O-])c3)cc(N3CCCC[C@H]3CCO)nc12; test: as above
LEE011/Ribociclib = compound: CN(C)C(=O)c1cc2cnc(Nc3ccc(N4CCNCC4)cn3)nc2n1C1CCCC1 [LEE011/Ribociclib]; test: as above
THZ1 = compound: CN(C)C/C=C/C(=O)Nc1ccc(C(=O)Nc2cccc(Nc3ncc(Cl)c(-c4c[nH]c5ccccc45)n3)c2)cc1 [THZ1]; test: as above
BSJ-03-123 = compound: CC(=O)c1c(C)c2cnc(Nc3ccc(N4CCN(CCOCCOCCOCCNC(=O)COc5cccc6c5C(=O)N(C5CCC(=O)NC5=O)C6=O)CC4)cn3)nc2n(C2CCCC2)c1=O [BSJ-03-123]; test: as above
[6] = compound: CC(=O)c1c(C)c2cnc(Nc3ccc(N4CCNCC4)cn3)nc2n(C2CCCC2)c1=O; test: as above
Neratinib/HKI272 = compound: CCOc1cc2ncc(C#N)c(Nc3ccc(OCc4ccccn4)c(Cl)c3)c2cc1NC(=O)/C=C/CN(C)C [Neratinib/HKI272]; test: as above
[7] = compound: CCN1CCN(Cc2ccc(Nc3ncc(F)c(-c4cc(F)c5nc(C)n(C(C)C)c5c4)n3)nc2)CC1; test: as above
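For GR50, 72 h in this document: breast cancer and non-malignant breast epithelial cell lines, Deep Dye Drop or Dye Drop imaging, nine half-log doses, GR normalized to time-zero plates and DMSO-only controls.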

With HCC1569 the “GR50, 72 h” value (BSJ-01-175) was 0.00923 µM, the “GR50, 72 h” value (AZD7762) was 0.0361 µM and the “GR50, 72 h” value [1] was 0.00952 µM. For the same cell line, the “GR50, 72 h” value (Ipatasertib/GDC0068) was 0.394 µM, the “GR50, 72 h” value [2] was over 10 µM and the “GR50, 72 h” value (AZD6738) was 3.49 µM. For the same cell line, the “GR50, 72 h” value (Tivantinib/ARQ197) was 0.992 µM, the “GR50, 72 h” value [3] was over 1 µM and the “GR50, 72 h” value (Vorinostat) was 3.31 µM. For the same cell line, the “GR50, 72 h” value [4] was 4.64 µM, the “increase in dead-cell fraction” value (Flavopiridol; 0.0001 µM) was -0.0248 and the “increase in dead-cell fraction” value (Flavopiridol; 0.0003162 µM) was 0.001. For the same cell line, the “increase in dead-cell fraction” value (Flavopiridol; 0.001 µM) was 0.0101, the “increase in dead-cell fraction” value (Flavopiridol; 0.003162 µM) was 0.0075 and the “increase in dead-cell fraction” value (Flavopiridol; 0.01 µM) was -0.0095. The “increase in dead-cell fraction” value (Flavopiridol; 0.03162 µM) was -0.0064, the “increase in dead-cell fraction” value (Flavopiridol; 0.1 µM) was 0.0067 and the “increase in dead-cell fraction” value (Flavopiridol; 0.3162 µM) was 0.0986. For the same cell line, the “increase in dead-cell fraction” value (Flavopiridol; 1 µM) was 0.102, the “increase in dead-cell fraction” value ([5]; 0.0001 µM) was -0.0022 and the “increase in dead-cell fraction” value ([5]; 0.0003162 µM) was -0.0018. The “increase in dead-cell fraction” value ([5]; 0.001 µM) was -0.0077, the “increase in dead-cell fraction” value ([5]; 0.003162 µM) was -0.0052 and the “increase in dead-cell fraction” value ([5]; 0.01 µM) was 0.0106. For the same cell line, the “increase in dead-cell fraction” value ([5]; 0.03162 µM) was 0.112, the “increase in dead-cell fraction” value ([5]; 0.1 µM) was 0.155 and the “increase in dead-cell fraction” value ([5]; 0.3162 µM) was 0.138. The “increase in dead-cell fraction” value ([5]; 1 µM) was 0.141, the “increase in dead-cell fraction” value (LEE011/Ribociclib; 0.001 µM) was 0.0294 and the “increase in dead-cell fraction” value (LEE011/Ribociclib; 0.003162 µM) was 0.0001. For the same cell line, the “increase in dead-cell fraction” value (LEE011/Ribociclib; 0.01 µM) was -0.0082, the “increase in dead-cell fraction” value (LEE011/Ribociclib; 0.03162 µM) was 0.0025 and the “increase in dead-cell fraction” value (LEE011/Ribociclib; 0.1 µM) was -0.0135. The “increase in dead-cell fraction” value (LEE011/Ribociclib; 0.3162 µM) was -0.0045, the “increase in dead-cell fraction” value (LEE011/Ribociclib; 1 µM) was -0.0042 and the “increase in dead-cell fraction” value (LEE011/Ribociclib; 3.162 µM) was -0.0048. For the same cell line, the “increase in dead-cell fraction” value (LEE011/Ribociclib; 10 µM) was -0.0015, the “increase in dead-cell fraction” value (THZ1; 0.0001 µM) was -0.004 and the “increase in dead-cell fraction” value (THZ1; 0.0003162 µM) was -0.0128. For the same cell line, the “increase in dead-cell fraction” value (THZ1; 0.001 µM) was 0.0063, the “increase in dead-cell fraction” value (THZ1; 0.003162 µM) was -0.0051 and the “increase in dead-cell fraction” value (THZ1; 0.01 µM) was 0.0163. The “increase in dead-cell fraction” value (THZ1; 0.03162 µM) was 0.0231, the “increase in dead-cell fraction” value (THZ1; 0.1 µM) was 0.208 and the “increase in dead-cell fraction” value (THZ1; 0.3162 µM) was 0.147. The “increase in dead-cell fraction” value (THZ1; 1 µM) was 0.166, the “increase in dead-cell fraction” value (BSJ-03-123; 0.001 µM) was 0.0046 and the “increase in dead-cell fraction” value (BSJ-03-123; 0.003162 µM) was -0.0135. For the same cell line, the “increase in dead-cell fraction” value (BSJ-03-123; 0.01 µM) was 0.0005, the “increase in dead-cell fraction” value (BSJ-03-123; 0.03162 µM) was 0.0168 and the “increase in dead-cell fraction” value (BSJ-03-123; 0.1 µM) was 0.002. The “increase in dead-cell fraction” value (BSJ-03-123; 0.3162 µM) was 0.0007, the “increase in dead-cell fraction” value (BSJ-03-123; 1 µM) was 0.0247 and the “increase in dead-cell fraction” value (BSJ-03-123; 3.162 µM) was 0.0066. For the same cell line, the “increase in dead-cell fraction” value (BSJ-03-123; 10 µM) was 0.0866, the “increase in dead-cell fraction” value ([6]; 0.0003162 µM) was 0.0023 and the “increase in dead-cell fraction” value ([6]; 0.001 µM) was -0.0102. The “increase in dead-cell fraction” value ([6]; 0.003162 µM) was 0.0038, the “increase in dead-cell fraction” value ([6]; 0.01 µM) was 0.0052 and the “increase in dead-cell fraction” value ([6]; 0.03162 µM) was -0.0056. For the same cell line, the “increase in dead-cell fraction” value ([6]; 0.1 µM) was -0.0096, the “increase in dead-cell fraction” value ([6]; 0.3162 µM) was 0.0042 and the “increase in dead-cell fraction” value ([6]; 1 µM) was 0.0001. The “increase in dead-cell fraction” value ([6]; 3.162 µM) was -0.0109, the “increase in dead-cell fraction” value (Neratinib/HKI272; 0.0003162 µM) was -0.0105 and the “increase in dead-cell fraction” value (Neratinib/HKI272; 0.001 µM) was 0.0063. For the same cell line, the “increase in dead-cell fraction” value (Neratinib/HKI272; 0.003162 µM) was 0.0037, the “increase in dead-cell fraction” value (Neratinib/HKI272; 0.01 µM) was 0.0107 and the “increase in dead-cell fraction” value (Neratinib/HKI272; 0.03162 µM) was 0.0135. The “increase in dead-cell fraction” value (Neratinib/HKI272; 0.1 µM) was 0.0196, the “increase in dead-cell fraction” value (Neratinib/HKI272; 0.3162 µM) was 0.0247 and the “increase in dead-cell fraction” value (Neratinib/HKI272; 1 µM) was 0.0283. For the same cell line, the “increase in dead-cell fraction” value (Neratinib/HKI272; 3.162 µM) was 0.0338, the “increase in dead-cell fraction” value ([7]; 0.001 µM) was -0.0009 and the “increase in dead-cell fraction” value ([7]; 0.003162 µM) was 0.0054. The “increase in dead-cell fraction” value ([7]; 0.01 µM) was 0.0105, the “increase in dead-cell fraction” value ([7]; 0.03162 µM) was 0.0034 and the “increase in dead-cell fraction” value ([7]; 0.1 µM) was -0.0024. For the same cell line, the “increase in dead-cell fraction” value ([7]; 0.3162 µM) was -0.0047, the “increase in dead-cell fraction” value ([7]; 1 µM) was 0.0011 and the “increase in dead-cell fraction” value ([7]; 3.162 µM) was 0.0024. For the same cell line, the “increase in dead-cell fraction” value ([7]; 10 µM) was 0.0361.
